{
  "source": "patent US8765447B2",
  "about": "“Fungal strain Beauveria sp. MTCC 5184 and a process for the preparation of enzymes therefrom” (Council of Scientific and Industrial Research, priority 2010, dated 2014)",
  "key": {"[1]": {"system": "protease of Beauveria sp MTCC 5184", "assay": "Stability of protease at 37° C. in water miscible solvents", "format": "biochemical", "settings": "water miscible solvents (FIG. 10)", "procedure": "FIG. 10: Stability of protease at 37° C. in presence of water miscible solvents."}, "[2]": {"system": "purified protease of Beauveria sp MTCC 5184", "assay": "Stability of purified protease in organic solvents at 50° C.", "format": "biochemical", "settings": "25% (v/v) solvent, pH 7", "excerpt": "Following organic solvents were used: acetone, 1-butanol, benzene, chloroform, dimethylsulphoxide, ethanol, hexane, isopropanol and methanol. […] Samples were removed at different time intervals and residual activity was estimated."}, "[3]": {"system": "purified protease of Beauveria sp MTCC 5184", "settings": "3 M NaCl (FIG. 14), 28° C., 30 min", "procedure": "Samples were removed at regular intervals and residual activity was measured at 50° C., pH 9.0 and expressed as percentage of activity without NaCl taken as 100%."}, "[4]": {"system": "purified protease of Beauveria sp MTCC 5184", "assay": "Effect of urea on protease activity", "format": "biochemical", "settings": "6M urea, 28° C., 2 h", "procedure": "This example illustrates the effect of urea on protease activity of Beauveria sp MTCC 5184. […] In presence of 6M urea, protease was stable up to 2 h and retained more than 85% of initial activity (FIG. 13)."}},
  "data": [
    {"smiles": "CO", "note": "[Methanol, methanol]", "values": [
      {"measurement": "initial activity retained", "setting": "[1]", "result": "> 80", "unit": "%"},
      {"measurement": "Residual Activity (%)", "setting": "[2]; 0 h", "result": 100.00, "unit": "%"},
      {"measurement": "Residual Activity (%)", "setting": "[2]; 1 h", "result": 93.49, "unit": "%"},
      {"measurement": "Residual Activity (%)", "setting": "[2]; 2 h", "result": 46.09, "unit": "%"}
    ]},
    {"smiles": "[Cl-].[Na+]", "note": "[NaCl]", "values": [
      {"measurement": "stability", "setting": "[3]", "result": 100, "unit": "%"}
    ]},
    {"smiles": "NC(N)=O", "note": "[urea]", "values": [
      {"measurement": "initial activity retained", "setting": "[4]", "result": "more than 85%"}
    ]}
  ]
}
